In publication PMC3514653 (Neuromodulation : journal of the International …, 2012):

Experiments:
Male beagle dogs = conditions: dog, in vivo
[1] = dog; intrathecal; cited from earlier work
[2] = dog, in vivo

## CSCC[C@@H]1NC(=O)[C@H](CC(C)C)NC(=O)[C@H](CCCNC(=N)N)NC(=O)[C@H](CO)NC(=O)[C@@H]2CSSC[C@@H]3NC(=O)[C@H](CO)NC(=O)CNC(=O)[C@H]([C@@H](C)O)NC(=O)[C@H](CSSC[C@H](N)C(=O)N[C@@H](CCCCN)C(=O)NCC(=O)N[C@@H](CCCCN)C(=O)NCC(=O)N[C@@H](C)C(=O)N[C@@H](CCCCN)C(=O)N2)NC(=O)[C@H](CSSC[C@@H](C(N)=O)NC(=O)[C@H](CCCCN)NC(=O)CNC(=O)[C@H](CO)NC(=O)[C@H](CCCNC(=N)N)NC3=O)NC(=O)[C@H](CC(=O)O)NC(=O)[C@H](Cc2ccc(O)cc2)NC1=O [Ziconotide]
Male beagle dogs
  Decreased arousal and activity (remained responsive), dogs affected: All 5 dogs

## O=C(c1ccccc1)c1ccc2n1CCC2C(=O)O (stereo not drawn) [ketorolac]
[1]
  T1/2 (CSF elimination) in this model: 54 min

## inulin [[^3H]Inulin]
[2]
  T1/2 α in LCSF: 9.6 min
